The text below walks through data of ChEMBL document CHEMBL3856270, “Structure-activity relationship of cyclic pentapeptide malformins as fibrinolysis enhancers” (Bioorg Med Chem Lett, 2016).

Series [1] deals with U-937. The series can be described thus: Pro-fibrinolytic activity in human U937 cells supplemented with human platelet-poor plasma assessed as [125I]-fibrin degradation up to 5 uM after 3 hrs by gamma counting method. The format is functional, cell-based.
Series [2] in a line: Cytotoxicity against human U937 cells assessed as reduction in cell viability after 24 hrs by MTT assay. The format is toxicity, cell-based, U-937. Conditions: for IC50 at 24 h: human, U937 cells. On the technique in general: Tetrazolium assays rely on reduction of a dye to a coloured formazan, in cell work by metabolically active cells.
For series [3], the system named is U-937. The series can be described thus: Pro-fibrinolytic activity in human U937 cells supplemented with human platelet-poor plasma assessed as [125I]-fibrin degradation at >20 uM after 3 hrs by gamma counting method. It is filed as functional, cell-based.
The test system of series [4] is U-937. The series can be described thus: Pro-fibrinolytic activity in human U937 cells supplemented with human platelet-poor plasma assessed as [125I]-fibrin degradation after 3 hrs by gamma counting method. The format is functional, cell-based.

The source made the active and inactive calls. The calls are words filed in the database; no cut-off is given here. A value given as a limit tells only on which side of the number the result lay.

In general, IC50 refers to the concentration that inhibits the measured activity by half. Consider `CC[C@H](C)[C@@H]1NC(=O)[C@@H](C)NC(=O)[C@H](C(C)C)NC(=O)[C@H]2CSSC[C@@H](NC1=O)C(=O)N2`, for which the outcome with U-937 [1] was Active. Further, in series [2], the IC50 at 24 h is 2.2 µM. With `CC(C)C[C@H]1NC(=O)[C@H](C(C)C)NC(=O)[C@H]2CSSC[C@@H](NC(=O)[C@H](CCCCN)NC1=O)C(=O)N2`, the half-maximal inhibitory concentration (IC50) at 24 h in series [2] is more than 5 µM. On to `CC[C@H](C)[C@@H]1NC(=O)[C@@H](CC(C)C)NC(=O)[C@H](Cc2ccccc2)NC(=O)[C@H]2CSSC[C@@H](NC1=O)C(=O)N2`, for which, in the series on U-937 [1], the result was Active. Also, the IC50 at 24 h in series [2] is less than 0.1 µM. As to `CC[C@H](C)[C@@H]1NC(=O)[C@@H](Cc2ccccc2)NC(=O)[C@H](C(C)C)NC(=O)[C@H]2CSSC[C@@H](NC1=O)C(=O)N2`, the result in the series on U-937 [1] was Active. In addition, the IC50 at 24 h in series [2] came to 1.3 µM. Consider `CC[C@H](C)[C@@H]1NC(=O)[C@@H](CCCCNC(=O)OC(C)(C)C)NC(=O)[C@H](C(C)C)NC(=O)[C@H]2CSSC[C@@H](NC1=O)C(=O)N2`, for which, in the series on U-937 [1], the result was Active. Moreover, the 50% inhibitory concentration (IC50) at 24 h in series [2] was 0.2 µM.

As for `CC[C@H](C)[C@@H]1NC(=O)[C@@H](CC(C)C)NC(=O)[C@H](C(C)C)NC(=O)[C@@H](CS)NC(=O)[C@@H](CS)NC1=O`, the outcome with U-937 [3] was Active. The concentration for half-maximal inhibition (IC50) at 24 h in series [2] was more than 5 µM.

Consider `CC[C@H](C)[C@@H]1NC(=O)[C@@H](CC(C)C)NC(=O)[C@H](CCCCN)NC(=O)[C@H]2CSSC[C@@H](NC1=O)C(=O)N2`, for which, in series [2], the IC50 at 24 h is more than 5 µM. The same measure, in the same setting: with `CC[C@H](C)[C@H](N)C(=O)N[C@@H]1CSSC[C@H](C(=O)N[C@H](C(=O)N[C@H](CC(C)C)C(=O)O)C(C)C)NC1=O` the figure was more than 5 µM. `CC[C@H](C)[C@@H]1NC(=O)[C@@H](CC(C)C)NC(=O)[C@H](C(C)C)NC(=O)[C@H]2CSSC[C@@H](NC1=O)C(=O)N2` (stereo in doubt; form 1) [listing 1 of 2 here]: in the series on U-937 [4], the Activity entry is “Dose-dependent effect”. As for `N[C@@H]1CSSC[C@H](C(=O)O)NC1=O`, in series [2], the half-maximal inhibitory concentration (IC50) at 24 h was more than 5 µM. As for `CC(C)C[C@H]1NC(=O)[C@H](C(C)C)NC(=O)[C@H]2CSSC[C@@H](NC(=O)[C@H](Cc3ccccc3)NC1=O)C(=O)N2`, in the series with U-937 [1], the outcome was Active. The IC50 at 24 h in series [2] is less than 0.1 µM.

As for `CC[C@H](C)[C@@H]1NC(=O)[C@@H](CC(C)C)NC(=O)[C@H](C(C)C)NC(=O)[C@H]2CSSC[C@@H](NC1=O)C(=O)N2` (stereo in doubt; form 2) [listing 1 of 2 here], the IC50 at 24 h in series [2] came to 0.76 µM. Still for that read-out and setting: with `CC[C@H](C)[C@@H]1NC(=O)[C@@H](CC(C)C)NC(=O)[C@H](C(C)C)NC(=O)[C@@H](CSC(c2ccccc2)(c2ccccc2)c2ccccc2)NC(=O)[C@@H](CSC(c2ccccc2)(c2ccccc2)c2ccccc2)NC1=O` the figure was more than 5 µM. On to `CC(C)C[C@H]1NC(=O)[C@H](C(C)C)NC(=O)[C@H]2CSSC[C@@H](NC(=O)[C@H](CCCCNC(=O)OC(C)(C)C)NC1=O)C(=O)N2`, for which the result in the series with U-937 [1] was Active. Further, the IC50 at 24 h in series [2] was less than 0.1 µM. In the same order, the values of `CC(C)C[C@H]1NC(=O)[C@H](C(C)C)NC(=O)[C@H]2CSSC[C@@H](NC(=O)[C@H](C)NC1=O)C(=O)N2` are “Active” and 2.8 µM. For `CC[C@H](C)[C@@H]1NC(=O)[C@@H](CCCCN)NC(=O)[C@H](C(C)C)NC(=O)[C@H]2CSSC[C@@H](NC1=O)C(=O)N2`, the half-inhibitory concentration (IC50) at 24 h in series [2] is more than 5 µM. With `CC[C@H](C)[C@@H]1NC(=O)[C@@H](CC(C)C)NC(=O)[C@H](C(C)C)NC(=O)[C@H]2CSSC[C@@H](NC1=O)C(=O)N2` (stereo in doubt; form 1) [listing 2 of 2 here], the IC50 in series [2] (u-937) amounted to 0.8 µM. As for `CC[C@H](C)[C@@H]1NC(=O)[C@@H](CC(C)C)NC(=O)[C@H](C(C)C)NC(=O)[C@H]2CSSC[C@@H](NC1=O)C(=O)N2` (stereo in doubt; form 2) [listing 2 of 2 here], in the series with U-937 [4], the Activity result was “Dose-dependent effect”. On to `CC[C@H](C)[C@@H]1NC(=O)[C@@H](CC(C)C)NC(=O)[C@H](C)NC(=O)[C@H]2CSSC[C@@H](NC1=O)C(=O)N2`, for which, in series [2], the IC50 at 24 h worked out at 1.4 µM.

On to `CC[C@H](C)[C@@H]1NC(=O)[C@@H](CC(C)C)NC(=O)[C@H](CCCCNC(=O)OC(C)(C)C)NC(=O)[C@H]2CSSC[C@@H](NC1=O)C(=O)N2`, for which, in the series with U-937 [1], the outcome was Active. For the same molecule, the 50% inhibitory concentration (IC50) at 24 h in series [2] was less than 0.1 µM.

`CC[C@H](C)[C@@H]1NC(=O)[C@@H](CC(C)C)NC(=O)[C@H](C(C)C)NC(=O)[C@@H](CSC)NC(=O)[C@@H](CSC)NC1=O`: in series [2], the IC50 at 24 h is more than 5 µM.
